Measured values reported in patent US20250288553A1, “Antimicrobial Compositions and Uses for Treatment of Clostridioides difficile, Mycobacterium tuberculosis, and Enterococcus faecalis Infection” (priority 2022, published 2025).
Converted amounts (≈) assume the structure as drawn. “And” between values parts separate entries of the source, which are not always exact repeats. Equal entries are not always repeated. Where two headings read alike, the source gives them in different places.

Tests used:
[1] = system: dormant Mtb-lux (Mycobacterium tuberculosis CDC1551 with pMV306hsp+LuxG13); assay type: cell-based; details: for R/D (MICR/MICD, Mtb-lux): ratio replicating MIC to dormant MIC
[2] = system: replicating Mtb-lux (Mycobacterium tuberculosis CDC1551 with pMV306hsp+LuxG13); assay type: cell-based
[3] = system: Clostridioides difficile NAP1; experiment: MIC against C. difficile NAP1, modified broth microdilution; details: for MIC: Clostridioides difficile, NAP1, 48 h, read-out: MIC C. difficile, NAP1, modified broth microdilution, 48 h, anaerobic; for MIC C. difficile: NAP1, modified broth microdilution, 48 h, anaerobic
[4] = system: Mycobacterium tuberculosis H37Ra ATCC 25177; experiment: MIC against Mtb H37Ra, resazurin microtiter assay (REMA); assay type: cell-based; details: for MIC: Mycobacterium tuberculosis, 336 h
[5] = Cytotoxicity assay HepG2; details: human
[6] = system: HepG2 (human liver carcinoma) cell line; experiment: Cytotoxicity assay HepG2
[7] = system: TcdA production in C. difficile NAP1; experiment: Toxin analysis: extracellular TcdA of C. difficile NAP1 at sub-MICs, western blot; assay type: cell-based, Clostridioides difficile; design: Concentration at which TcdA was undetectable: unit not given here; details: for Effect on TcdA toxin production: NAP1 challenged with 0.5×, 0.25×, 0.125× MIC, 48 h, TcdA normalized to total protein
Description: After a 48 h incubation of NAP1 challenged with several dilutions of each compound, extracellular toxin in spent media derived from triplicate cultures was assessed with western blots using a monoclonal antibody against TcdA. Semi-quantitative analysis of toxin levels was performed via densitometry of TcdA band intensity with respect to total protein as measured by the Bradford assay. Semi-quantitative plots are shown below each representative blot. (a) Toxin production in BHIS (NAP1) and BHIS with 5% DMSO (vehicle). (b) Toxin production from cultures challenged with sub-MICs of fidaxomicin, (c) vancomycin, and (d-j) (+)-puupehenone and selected derivatives. Data points represent the means of adjusted toxin levels derived from triplicate cultures, while error bars represent standard deviations. Statistical analysis was performed in GraphPad Prism 8 using unpaired t-tests. *P<0.05; **P<0.01.
To account for changes in biomass, a semi-quantitative analysis of TcdA production was performed by normalizing the target bands from representative western blots to the amount of total protein in each sample.
Toxin analysis. Toxin production was determined by analyzing the amount of extracellular toxin in the cultures from the ASTs described above. At 48 h, total protein of each culture was determined with the Bradford assay using bovine serum albumin (BSA) as a standard.^53 Cultures were then centrifuged at 5,000×g for 5 minutes to clear the supernatants which were separately collected and frozen at −20° C. After thawing at room temperature, cell-free supernatants were mixed 1:1 with 2× Laemmli buffer and incubated in a sand bath at 100° C. for 5 minutes. Twenty microliters of denatured samples were loaded onto 7.5% Tris-glycine gels and electrophoresed at 200 V for 1 h. After electrophoresis, samples were transferred to polyvinylidene difluoride membranes at 4° C. overnight at 30 V. Membranes were incubated in a blocking buffer (20 mM Tris-HCl, 150 mM NaCl, 0.01 mM ethylenediaminetetraacetic acid, 0.1% Tween 20, 1% BSA, [pH 7.5]) for 1 h at room temperature. TcdA was detected with a monoclonal mouse anti-TcdA antibody (PCG4.1, Novus Biologicals) and a rabbit anti-mouse antibody conjugated with alkaline phosphatase. Blots were visualized with a ChemiDoc XRS+ imaging system (Bio-Rad).
Semi-quantitative analysis of TcdA was performed using Image Lab 6.0 software (Bio-Rad). Briefly, after subtracting background noise, peaks corresponding to the target band were selected with the software's Lane Profile tool. The density of each peak generated a value (arbitrary units) that was normalized to the total protein amount of each respective sample. […] These losses of activity prevented us from performing statistical analysis from multiple experiments, as the sub-MICs were not always the same. Since there were no changes to the methodology described, several other reasons could have accounted for decreased activity, such as compound stability, freeze-thaw, and adherence to plastic. Nevertheless, the toxin results were reproducible, irrespective of the exact sub-MICs on different days.

[8] = system: J774A.1 (murine macrophage-like) cell line; experiment: Cytotoxicity assay J774A.1; assay type: cell-based
Description: (§1) To evaluate the selectivity of the top six compounds from the Mtb-lux activity screen (Table 2), cytotoxicity for two different mammalian cell lines was determined. The IC50 was calculated for each compound against J774A.1 and HepG2 cell lines. The selectivity index (SI) for both replicating and dormant conditions was then calculated by taking the IC50 and dividing it by the corresponding MIC (SIR=IC50/MICR, SID=IC50/MICD)^40. Consistent with the experience, the J774 macrophage cell line was more sensitive to all compounds tested. […] Based on these observations, this triacetate protected puupehenone represents a promising candidate for further optimization.
(§2) Cytotoxicity assay: Cytotoxicity was assessed using J774A.1 (murine macrophage-like) and HepG2 (human liver carcinoma) cell lines using 2-fold dilution of the compounds as described previously^42, 43. IC50 values were determined using nonlinear regression fitting of the databy GraphPad Prism. The selectivity Index (SI) was calculated as IC50/MIC.

[9] = Cytotoxicity assay J774A.1; assay type: cell-based, murine; details: mouse, J774A.1 macrophage-like cells; J774A.1 cells; read-out: Cytotoxicity (IC50) J774
Description: as §1, §2

[10] = system: Bacillus subtilis ATCC 23857; experiment: MIC against B. subtilis, REMA
[11] = system: Enterococcus faecalis ATCC 29212; experiment: MIC against E. faecalis, REMA; details: Enterococcus faecalis, ATCC29212, 24 h, read-out: MIC E. faecalis
[12] = system: Staphylococcus aureus ATCC 25923; experiment: MIC against S. aureus, REMA; details: visual, 24 h
[13] = determined visually by REMA assay, 14-day incubation, read-out: MIC Mtb H37Ra
[14] = read-out: MIC Mtb H37Ra, determined visually by REMA assay, 14-day incubation

SMILES	MICD (Mtb-lux) [1]	MICR (Mtb-lux) [2]	R/D (MICR/MICD, Mtb-lux) [1]	MIC C. difficile [3]	IC50 [5]	SI (SID) HepG2 [6]	SI (SIR) HepG2 [6]	SI (SID) J774 [8]	SI (SIR) J774 [8]	IC50 [9]	further results
CO[C@@H]1c2cc(OC(=O)c3ccccc3)c(OC(=O)c3ccccc3)cc2O[C@@]2(C)CC[C@H]3C(C)(C)CCC[C@]3(C)[C@@H]12 [Compound 18]	48.3 µg/mL	>200 µg/mL	–	–	–	–	–	–	–	–	–
CC1(C)CCC[C@]2(C)[C@H]3C=C4C=C(O)C(=O)C=C4O[C@@]3(C)CC[C@@H]12 [Compound 1, (+)-Puupehenone]	0.5 µg/mL	3.0 µg/mL	6.0	2.0 µg/mL (≈ 6.09 µM)	70.6 µM	141.2	23.5	46.4	7.7	23.2 µM	MIC [3]: 2 to 4 µg/mL (≈ 6.09 to 12.2 µM); MIC [4, 13]: 32.8 µg/mL (≈ 99.9 µM); Concentration at which TcdA was undetectable ([7]; NAP1, 48 h, western blot): 1
CCC(=O)Oc1cc2c(cc1OC(=O)CC)[C@@H](OC)[C@@H]1[C@@]3(C)CCCC(C)(C)[C@@H]3CC[C@]1(C)O2 [Compound 16]	1.7 µg/mL	8.9 µg/mL	5.2	–	> 200 µM	> 117.6	> 22.5	35.7	6.8	60.6 µM	MIC [4, 13]: 23.6 µg/mL (≈ 49.9 µM)
CC(C)C(=O)Oc1cc2c(cc1OC(=O)C(C)C)[C@@H](OC(=O)C(C)C)[C@@H]1[C@@]3(C)CCCC(C)(C)[C@@H]3CC[C@]1(C)O2 [Compound 22]	88.8 µg/mL	7.6 µg/mL	0.08	–	–	–	–	–	–	–	–
CC(=O)Oc1cc2c(cc1OC(C)=O)[C@@H](OC(C)=O)[C@@H]1[C@@]3(C)CCCC(C)(C)[C@@H]3CC[C@]1(C)O2 [Compound 20, 15-α-acetoxypuupehenol diacetate]	1.4 µg/mL	6.0 µg/mL	4.3	2.0 µg/mL	> 200 µM	> 142.3	> 33.3	> 142.3	> 33.3	> 200 µM	MIC [3]: 2 to 4 µg/mL; MIC [4, 14]: 11.8 µg/mL; Cytotoxicity (IC50) HepG2 ([6]; HepG2 cells): no cytotoxicity; Effect on TcdA toxin production [7]: decreased the amount of toxin in a similar concentration-dependent manner; Cytotoxicity (IC50) J774 ([8]; J774A.1 cells): no cytotoxicity
CC1(C)CCCC2(C)C1CCC(C)(O)C2Cc1ccc(OCc2ccccc2)cc1 (centres unmarked) [Compound 33]	40.4 µg/mL	57.5 µg/mL	1.4	–	–	–	–	–	–	–	MIC Mtb H37Ra [4]: 40.6 µg/mL (≈ 99.8 µM)
CN[C@H](CC(C)C)C(=O)N[C@H]1C(=O)N[C@@H](CC(N)=O)C(=O)N[C@H]2C(=O)N[C@H]3C(=O)N[C@H](C(=O)N[C@H](C(=O)O)c4cc(O)cc(O)c4-c4cc3ccc4O)[C@H](O)c3ccc(c(Cl)c3)Oc3cc2cc(c3O[C@@H]2O[C@H](CO)[C@@H](O)[C@H](O)[C@H]2O[C@H]2C[C@](C)(N)[C@H](O)[C@H](C)O2)Oc2ccc(cc2Cl)[C@H]1O [vancomycin, reference compound]	–	–	–	–	–	–	–	–	–	–	Effect on TcdA toxin production [7]: reduced toxin production in a concentration-dependent manner
CO[C@@H]1c2cc(OC(=O)C(C)(C)C)c(O)cc2O[C@@]2(C)CC[C@H]3C(C)(C)CCC[C@]3(C)[C@@H]12 [Compound 19, 15-α-methoxypuupehenol monopivalate]	1.5 µg/mL	12.7 µg/mL	–	4.0 µg/mL (≈ 9 µM)	> 200 µM	> 133.3	> 15.7	37.6	4.4	56.4 µM	MIC [3]: 2 to 4 µg/mL (≈ 4.5 to 9 µM); MIC ([10]; Bacillus subtilis, ATCC23857, 24 h, read-out: MIC B. subtilis): 22.2 µg/mL (≈ 50 µM); MIC [4, 14]: 44.4 µg/mL (≈ 99.9 µM); MIC [11]: 22.2 µg/mL (≈ 50 µM); Effect on TcdA toxin production [7]: did not appear to substantially change toxin production
CO[C@@H]1c2cc(OC(=O)C(C)C)c(OC(=O)C(C)C)cc2O[C@@]2(C)CC[C@H]3C(C)(C)CCC[C@]3(C)[C@@H]12 [Compound 17]	10.1 µg/mL	8.6 µg/mL	0.9	–	–	–	–	–	–	–	MIC [4, 13]: 25 µg/mL (≈ 49.9 µM)
CCC(=O)Oc1cc2c(cc1OC(=O)CC)[C@@H](OC(=O)CC)[C@@H]1[C@@]3(C)CCCC(C)(C)[C@@H]3CC[C@]1(C)O2 [Compound 21]	1.0 µg/mL and 1 µg/mL	2.8 µg/mL	2.8	–	64.2 µM	64.2	22.9	26.4	9.4	26.4 µM	MIC [4, 14]: 12.9 µg/mL (≈ 25.1 µM); MIC Mtb H37Ra ([4]; determined visually by REMA assay, 14-day incubation): 12.85 µg/mL (≈ 25 µM)
CC1(C)CCC[C@]2(C)[C@@H](Cc3cc(O)ccc3O)[C@](C)(O)CC[C@@H]12 [Compound 41, (+)-Yahazunol]	–	–	–	did not inhibit	–	–	–	–	–	–	MIC B. subtilis ([10]; REMA, visual, 24 h): 33.2 µg/mL (≈ 99.9 µM); MIC S. aureus [12]: 33.2 µg/mL (≈ 99.9 µM)
